Laboratory results from the supplement of paper PMC13380429.

What was measured:
Details in all cases: 72 h
Caco-2 [1] = experiment: drug sensitivity score (DSS) for viability; higher = more toxic; extreme values may be limits of the assay
HepG2 [2] = experiment: as above
Calu-3 [3] = experiment: as above
Vero E6 [4] = experiment: as above
U2OS [5] = experiment: as above
Caco-2 [6] = experiment: cell viability relative to DMSO; higher = less toxic
HepG2 [7] = experiment: as above
Calu-3 [8] = experiment: as above
Vero E6 [9] = experiment: as above
U2OS [10] = experiment: as above
Caco-2 [11] = experiment: relative viability EC50 (midpoint between 100% and the lowest measured viability); higher = less toxic
HepG2 [12] = experiment: as above
Calu-3 [13] = experiment: as above
Vero E6 [14] = experiment: as above
U2OS [15] = experiment: as above

SMILES | drug sensitivity score (Caco-2 [1]) | drug sensitivity score (HepG2 [2]) | drug sensitivity score (Calu-3 [3]) | drug sensitivity score (Vero E6 [4]) | drug sensitivity score (U2OS [5]) | cell viability (Caco-2 [6]; 1 nM) [%] | cell viability (Caco-2 [6]; 10 nM) [%] | cell viability (Caco-2 [6]; 100 nM) [%] | cell viability (Caco-2 [6]; 1000 nM) [%] | cell viability (Caco-2 [6]; 10000 nM) [%] | cell viability (HepG2 [7]; 1 nM) [%] | cell viability (HepG2 [7]; 10 nM) [%] | cell viability (HepG2 [7]; 100 nM) [%] | cell viability (HepG2 [7]; 1000 nM) [%] | cell viability (HepG2 [7]; 10000 nM) [%] | cell viability (Calu-3 [8]; 1 nM) [%] | cell viability (Calu-3 [8]; 10 nM) [%] | cell viability (Calu-3 [8]; 100 nM) [%] | cell viability (Calu-3 [8]; 1000 nM) [%] | cell viability (Calu-3 [8]; 10000 nM) [%] | cell viability (Vero E6 [9]; 1 nM) [%] | cell viability (Vero E6 [9]; 10 nM) [%] | cell viability (Vero E6 [9]; 100 nM) [%] | cell viability (Vero E6 [9]; 1000 nM) [%] | cell viability (Vero E6 [9]; 10000 nM) [%] | cell viability (U2OS [10]; 1 nM) [%] | cell viability (U2OS [10]; 10 nM) [%] | cell viability (U2OS [10]; 100 nM) [%] | cell viability (U2OS [10]; 1000 nM) [%] | cell viability (U2OS [10]; 10000 nM) [%] | relative viability EC50 (Caco-2 [11]) [µM] | relative viability EC50 (HepG2 [12]) [µM] | relative viability EC50 (Calu-3 [13]) [µM] | relative viability EC50 (Vero E6 [14]) [µM] | relative viability EC50 (U2OS [15]) [µM]
CCN(CC)CCOCCOC(=O)C1(c2ccccc2)CCCC1 [carbetapentane] | 0 | 0 | 0 | 0 | 0 | 97.9 | 94.3 | 94.3 | 105 | 91.1 | 104 | 103 | 97.2 | 97.5 | 94.4 | 90.6 | 93.8 | 104 | 97.6 | 100 | 103 | 93.9 | 108 | 104 | 97.6 | 99.4 | 102 | 99.5 | 101 | 95.5 | > 10 | > 10 | > 10 | > 10 | > 10
CCCCCCCCCCCCCCCC(=O)OC[C@@H](NC(=O)C(Cl)Cl)[C@H](O)c1ccc([N+](=O)[O-])cc1 [chloramphenicol-palmitate] | 0 | 0.2 | 0 | 0 | 0 | 111 | 102 | 99 | 95.1 | 95.3 | 98.1 | 101 | 103 | 92.4 | 88.6 | 97.3 | 95.6 | 95.2 | 97 | 102 | 107 | 107 | 102 | 97.2 | 99.3 | 105 | 99.6 | 102 | 104 | 100 | > 10 | > 10 | > 10 | > 10 | > 10
